Results taken from PMC8086754 (Journal of medicinal chemistry, 2020).

Key:
[1] = system: T cell proliferation in PBMCs; assay: Human PBMC proliferation assay; type: cell-based
[2] = molecular target: T1, human i-20S β5i (Homo sapiens, UniProt P28062); assay: IC50 determination against human i-20S β5i; type: biochemical; settings: for inhibitory activity against β5i (SAR statement in words): relative to the parent compound of the sentence; for reduction in β5i activity: relative to PKS2086
[3] = molecular target: human c-20S β5c (Homo sapiens, UniProt P28074); assay: IC50 determination against human c-20S β5c; type: biochemical; settings: relative to the parent compound of the sentence
[4] = molecular target: α-chymotrypsin (Bos taurus, UniProt P00766); assay: Protease counter-screen, α-chymotrypsin; type: biochemical; settings: compounds at 100, 33.3 and 11.1 μM
[5] = molecular target: cathepsin L (Homo sapiens, UniProt P07711); assay: Protease counter-screen, cathepsin L; type: biochemical; settings: compounds at 100, 33.3 and 11.1 μM
Sequence of cathepsin L (P07711 114-333, species assumed): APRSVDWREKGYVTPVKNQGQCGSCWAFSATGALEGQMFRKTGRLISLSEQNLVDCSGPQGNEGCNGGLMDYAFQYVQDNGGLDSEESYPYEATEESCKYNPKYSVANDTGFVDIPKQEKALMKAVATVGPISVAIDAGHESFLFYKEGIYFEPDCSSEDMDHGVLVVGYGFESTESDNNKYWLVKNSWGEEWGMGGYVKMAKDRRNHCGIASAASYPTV

[6] = molecular target: T1, human i-20S β5i; settings: previously reported; cited from earlier work

SMILES: COC[C@H](NC(=O)[C@H](CCC(=O)NC(C)(C)C)NS(=O)(=O)c1ccc(C)cc1)C(=O)NCc1ccc(F)c2ccccc12 [PKS21265]
- greater potency against T cells ([1]; compared to PKS21209): 2 fold
- greater potency against T cells ([1]; compared to PKS21266): 5 fold

SMILES: COC[C@H](NC(=O)CCc1ccccc1)C(=O)N[C@@H](C)C(=O)NCc1cccc2ccccc12 [PKS2048]
- inhibitory activity against β5i (SAR statement in words) [2]: abolished the inhibitory activities
- inhibitory activity against β5c (SAR statement in words) [3]: abolished the inhibitory activities

SMILES: COC[C@H](NC(=O)[C@H](CC(=O)NOC(C)(C)C)NC(=O)CCc1ccccc1)C(=O)NCc1cccc(OC)c1 [PKS2160]
- selectivity for β5i over β5c (statement in words) [2]: abolished selectivity

SMILES: NC(=O)C[C@H](NC(=O)CCc1ccccc1)C(=O)N[C@@H](Cc1ccc(F)cc1)C(=O)NCc1cccc2ccccc12 [PKS21083]
- inhibitory activity against β5c (SAR statement in words) [3]: abolished the inhibitory activities

SMILES: C[C@H](NC(=O)[C@H](CC(=O)NOC(C)(C)C)NC(=O)CCc1ccccc1)C(=O)NCc1cccc2ncccc12 [PKS2073]
- inhibitory activity against β5i (SAR statement in words) [2]: eliminated inhibitory activity
- inhibitory activity against β5c (SAR statement in words) [3]: eliminated inhibitory activity

SMILES: C[C@H](NC(=O)[C@H](CC(=O)NOC(C)(C)C)NC(=O)CCc1ccccc1)C(=O)NCc1ccnc2ccccc12 [PKS2068]
- inhibitory activity against β5i (SAR statement in words) [2]: eliminated inhibitory activity
- inhibitory activity against β5c (SAR statement in words) [3]: eliminated inhibitory activity

SMILES: COC[C@H](NC(=O)[C@H](CC(=O)NOC(C)(C)C)NC(=O)CCc1ccccc1)C(=O)NCc1cccc2c1NCCC2 [PKS2226]
- reduction in β5i activity [2]: 114 fold

SMILES: C[C@H](NC(=O)[C@H](CC(=O)NC(C)(C)C)NC(=O)C(=O)c1c[nH]c2ccccc12)C(=O)NCc1cccc2ccccc12 [PKS3053]
- inhibition of α-chymotrypsin [4]: weak inhibition
- inhibition of cathepsin L [5]: weak inhibition
- activity against T cells relative to comparator ([1]; compared to PKS21210): two times more active
- activity against T cells relative to comparator ([1]; compared to PKS21272): > 3 times

SMILES: C[C@H](NC(=O)[C@H](CC(=O)NOC(C)(C)C)NC(=O)CCc1ccccc1)C(=O)NCc1cccc2[nH]ccc12 [PKS2083]
- inhibitory activity against β5i (SAR statement in words) [2]: decreased potency against β5i
- inhibitory activity against β5c (SAR statement in words) [3]: increased activity against β5c

SMILES: COC[C@H](NC(=O)[C@H](CC(=O)N(C)C)NC(=O)CCc1ccccc1)C(=O)NCc1cccc2ccccc12 [Compound 2230BP]
- inhibitory activity against β5c (SAR statement in words) [3]: significant loss of affinity

SMILES: COC[C@H](NC(=O)[C@H](CC(=O)NOC(C)(C)C)NC(=O)CCc1ccccc1)C(=O)NCc1cccc(OC)c1OC [PKS2211]
- selectivity for β5i over β5c (statement in words) [2]: abolished selectivity

SMILES: COC[C@H](NC(=O)[C@H](CC(=O)NOC(C)(C)C)NC(=O)CCc1ccccc1)C(=O)NCc1cccc2cccnc12 [PKS2220]
- reduction in β5i activity [2]: 19 fold

SMILES: COC[C@H](NC(=O)[C@H](CC(=O)N1CCC1)NC(=O)CCc1ccccc1)C(=O)NCc1cccc2ccccc12 [PKS2209]
- inhibitory activity against β5c (SAR statement in words) [3]: significant loss of affinity

SMILES: C[C@H](NC(=O)[C@H](CCC(=O)NC(C)(C)C)NC(=O)CCc1ccccc1)C(=O)NCc1ccc(F)c2ccccc12 [PKS21210]
- inhibitory activity against β5i (SAR statement in words) [2]: equipotent

SMILES: CC(C)(C)ONC(=O)C[C@H](NC(=O)CCc1ccccc1)C(=O)N[C@@H](Cc1ccc(F)cc1)C(=O)NCc1cccc2ccccc12 [DPLG3]
- β5i inhibitory potency [6]: single-digit nanomolar potency
